Earlier results as cited in US20250170053A1, “LONG-LASTING RESORBABLE SUBCUTANEOUS IMPLANT WITH PROLONGED RELEASE OF PRE-CONCENTRATED PHARMACOLOGICALLY ACTIVE SUBSTANCE IN A POLYMER FOR THE ADJUVANT TREATMENT OF EPILEPSY, CHRONIC PAIN AND ANXIETY, AND METHOD” (priority 2022, published 2025).

Tests used:
rodents = conditions: systemic administration
[1] = tested on: patients with treatment-resistant epilepsy; conditions: 2 to 50 mg/kg/day oral CBD, twelve weeks
[2] = tested on: healthy volunteers and patients with anxiety disorders; conditions: inverted U-shaped dose-response curve in humans

For `C=C(C)[C@@H]1CCC(C)=C[C@H]1c1c(O)cc(CCCCC)cc1O` [CBD, cannabidiol], the “effect in the elevated plus-maze test” value (rodents) is given as “antianxiety effects”, the “individuals who discontinued treatment due to some adverse event” value [1] is given as 3% and the “safety and tolerability of the drug” value [1] is given as “acceptable”. For the same compound, the “average reduction in seizure frequency” value ([1]; adjunctive therapy, patients aged one to thirty years) was 36.5% and the anxiolytic activity [2] was “significant anxiolytic activity”.
